How the values were obtained:
[1] = oral administration; cited from earlier work
[2] = Particle size analysis by laser diffraction during micronisation; format: physicochemical
Protocol: A thorough fragmentation of dry powder forming each of these batches is carried out, feeding them at a rate of 4 kg/h into a known dry powder disintegration device, for example into a device of the Alpine® 100 AFG Jet Mill model from Hosokawa Micron Group. This device comprises a cylindrical milling chamber with a conical bottom which is made of stainless steel coated with an elastomer. This chamber has a diameter of 100 mm and a volume of 800 cm^3. The particles to disintegrate are introduced into the chamber by an endless screw. Then the particles are projected against each other by compressed air jets from 3 air nozzles having a diameter of 2 mm which run into each other at the same point. The obtained air stream carries then the disintegrated particles at 50 bar towards a turbo-selecting device which is integrated within the milling chamber. In this example this turbo-selecting device has the shape of a squirrel-cage which has adjustable rotational speed of 5000 to 16000 rpm.
This device allows the exit of the particles smaller than a determined size, in this case <5 μm, and repulses into the milling chamber the particles having a greater size. The fine particles (searched size) which leave the milling chamber are collected for example by means of a cyclone.
The sizes of the particles were then analysed. In order to analyse the diameters use was made of a RODOS & RODOS/M dry powder dispersion device (from Sympatec GmbH) and a VIBRI vibratory powder feed tool (from Sympatec GmbH) with a HELOS laser diffraction system (from Sympatec GmbH). The powders analysed were fed at a rate of 35% of the maximum rate. On passing through an air jet, the powder is subjected to shearing forces of around 3.0 bar. Using a vacuum (90-100 mbar) they are then sucked into the path of a HE/NE laser beam. The diffraction of the laser beam by the particles creates a model which is measured and converted by computer into a particle size distribution using software associated with the HELOS system.

[3] = tested on: reactivity of the respiratory tracts; test: Reactivity of respiratory tracts in ovalbumin-sensitised rats; format: in vivo; conditions: sensitised Brown Norway rats, force feeding twice a day 125 and 250 mg/kg, day -1 to day 20, all doses of methacholine
Protocol: At day 0, Brown Norway rats (200-250 g) were sensitised by intraperitoneal administration (1 ml/rat) of ovalbumin (1 mg/ml) mixed with aluminium hydroxide (100 mg/ml).
In this experiment, micronised ADA according to the invention is administered to rats by force feeding in the form of a suspension in poloxamer 188. The administration takes place twice a day in doses of 125 and 250 mg/kg, from day −1 up to day 20.

[4] = water and organic solvents; cited from earlier work
[5] = Particle size stability of micronised ADA in capsules on storage; format: physicochemical
Protocol: After having manufactured micronised ADA under the conditions of examples 1 and 2, a size distribution of the ADA crystals was obtained, as illustrated on the appended FIG. 2.
Thereafter the active substance was incorporated into capsules which have been stored for 11 months within a refrigerator at 8° C., in order to determine the stability of ADA according to the standards (International Harmonisation Conference: ICH).
The size of the ADA particles has been determined again at this moment as well as after 3 additional months within a stove at 25° C./60% humidity.

healthy male volunteers = test: Examination of toxicity on human beings (urine examination by flow cytometry); format: in vivo; conditions: capsules, seven days, up to 6 g per day, limit of detection 2 μm
Protocol: “ESB free” gelatine-coated capsules containing a composition as described in example 4 were administered for seven days to healthy male volunteers at a dose ranging up to 6 g per day (single dose of 150 to 6,000 mg and repeated doses of 300 to 2,400 mg).
A urine examination was carried out using flow cytometry (limit of detection 2 μm).

rats = test: 28-day oral toxicity in rats; format: in vivo; conditions: daily 900, 150 and 25 mg/kg for 28 days, suspension in carboxymethylcellulose
Protocol: (§1) Tests were carried out on rats to which daily doses of 900, 150 and 25 mg of ADA according to the invention/kg of body weight were administered orally for 28 days. The ADA was in the form of a micronised powder according to the invention in suspension in carboxymethylcellulose. Likewise an identical test was carried out on dogs at daily doses for 28 days of 400, 100 and 25 mg of ADA according to the invention/kg of body weight.

dogs = test: 28-day oral toxicity in dogs; format: in vivo
Protocol: as §1
On the dogs that received 400 mg/kg/day for 28 days, a histological examination was also carried out with dissection of the kidneys.

[6] = Comparative examination of bioavailability (biurea in blood after force feeding); format: in vivo; conditions: mice, force feeding, 10, 5 and 1.25 mg/kg, 30 minutes after ingestion, suspension in CMC, FIG. 1
Protocol: 54 mice are randomly divided into 9 groups of 6 animals and receive a dose of ADA by force feeding.
The concentration of biurea, the only catabolite of ADA “in vivo” (Concise International Chemical Assessment Document 16; World Health Organisation: Geneva, 1999) in the blood serum (μg/ml) was determined 30 minutes after ingestion by means of a high-pressure liquid chromatography method. This concentration represents a measurement of the bioavailability of ADA in the organism.
Analysis of the plasma samples was carried out by high-pressure liquid chromatography, followed by mass spectrometry, in accordance with the standards of the “Food and Drug (USA) Administration May 2001: Guidance for Industry: Bioanalytical method validation” (lowest quantification limit (LOQ) of 0.20 μg/ml and linear method up to 20 μg/ml).

[7] = End of micronisation, listed as A
[8] = Middle of micronisation, listed as A
[9] = Start of micronisation, listed as A
[10] = End of micronisation, listed as C
[11] = Middle of micronisation, listed as C
[12] = Start of micronisation, listed as C
[13] = Test date Aug. 7, 2005, 3 additional months at 25° C./60% humidity
[14] = Test date Jun. 20, 2004, after manufacture
[15] = Test date May 7, 2005, capsules stored 11 months in refrigerator at 8° C.
[16] = End of micronisation, listed as B
[17] = Middle of micronisation, listed as B
[18] = Start of micronisation, listed as B

## NC(=O)N=NC(N)=O [ADA as commercially available, azodicarbonamide]
[1]
  Formation of biurea crystals in the urine: the formation of biurea crystals is quickly observed in the urine

## NC(=O)N=NC(N)=O [Batch A, azodicarbonamide]
[2]; [7]
  Granulometry of particles during micronisation d10: 0.56 μm
  Granulometry of particles during micronisation d50: 1.51 μm
  Granulometry of particles during micronisation d90: 3.50 μm
[2]; [8]
  Granulometry of particles during micronisation d10: 0.56 μm
  Granulometry of particles during micronisation d50: 1.53 μm
  Granulometry of particles during micronisation d90: 3.55 μm
[2]; [9]
  Granulometry of particles during micronisation d10: 0.58 μm
  Granulometry of particles during micronisation d50: 1.61 μm
  Granulometry of particles during micronisation d90: 3.78 μm

## NC(=O)N=NC(N)=O [ADA, Azodicarbonamide]
[3]
  Inhibition of the increase in reactivity of the respiratory tracts caused by antigen attack: significant inhibition
[4]
  Solubility: not very soluble in water or in the majority of organic solvents

## NC(=O)N=NC(N)=O [azodicarbonamide]
[5]; no additive, 11 months 8° C. plus 3 months 25° C./60% humidity, FIG. 3
  Stability of particle size on storage: stability of ADA according to the invention clearly results
Healthy male volunteers
  Kidney stones or cylinders in urine: No kidney stones or cylinders were observed
rats
  Adverse effect: In neither of the two tests was any adverse effect observed
dogs; 400 mg/kg/day for 28 days
  Biurea crystals in kidneys (histological examination): no biurea crystals were observed
dogs; oral, daily 400, 100 and 25 mg/kg for 28 days
  Adverse effect: In neither of the two tests was any adverse effect observed
[6]
  Bioavailability of ADA in the blood (concentration of biurea): appreciably better than the non-micronised ADA
[6]; listed as ADA according to the invention
  Bioavailability of ADA in the blood (concentration of biurea): even better bioavailability than completely dissolved ADA

## NC(=O)N=NC(N)=O [Batch C, azodicarbonamide]
[2]; [10]
  Granulometry of particles during micronisation d10: 0.57 μm
  Granulometry of particles during micronisation d50: 1.58 μm
  Granulometry of particles during micronisation d90: 3.85 μm
[2]; [11]
  Granulometry of particles during micronisation d10: 0.57 μm
  Granulometry of particles during micronisation d50: 1.56 μm
  Granulometry of particles during micronisation d90: 3.69 μm
[2]; [12]
  Granulometry of particles during micronisation d10: 0.56 μm
  Granulometry of particles during micronisation d50: 1.47 μm
  Granulometry of particles during micronisation d90: 3.43 μm

## NC(=O)N=NC(N)=O [Batch K9J, azodicarbonamide]
[5]; [13]
  Particle sizes D10: 0.76 μm
  Particle sizes D50: 2.05 μm
[5]; [14]
  Particle sizes D10: 0.56 μm
  Particle sizes D50: 1.51 μm
[5]; [15]
  Particle sizes D10: 0.72 μm
  Particle sizes D50: 1.86 μm

## NC(=O)N=NC(N)=O [Batch B, azodicarbonamide]
[2]; [16]
  Granulometry of particles during micronisation d10: 0.59 μm
  Granulometry of particles during micronisation d50: 1.56 μm
  Granulometry of particles during micronisation d90: 3.68 μm
[2]; [17]
  Granulometry of particles during micronisation d10: 0.58 μm
  Granulometry of particles during micronisation d50: 1.59 μm
  Granulometry of particles during micronisation d90: 3.88 μm
[2]; [18]
  Granulometry of particles during micronisation d10: 0.58 μm
  Granulometry of particles during micronisation d50: 1.58 μm
  Granulometry of particles during micronisation d90: 3.71 μm

## NC(=O)N=NC(N)=O [Batch K9K, azodicarbonamide]
[5]; [13]
  Particle sizes D10: 0.74 μm
  Particle sizes D50: 1.93 μm
[5]; [14]
  Particle sizes D10: 0.59 μm
  Particle sizes D50: 1.56 μm
[5]; [15]
  Particle sizes D10: 0.69 μm
  Particle sizes D50: 1.74 μm

## NC(=O)N=NC(N)=O [Batch K9L, azodicarbonamide]
[5]; [13]
  Particle sizes D10: 0.76 μm
  Particle sizes D50: 2.08 μm
[5]; [14]
  Particle sizes D10: 0.57 μm
  Particle sizes D50: 1.58 μm
[5]; [15]
  Particle sizes D10: 0.72 μm
  Particle sizes D50: 1.88 μm

— US20070110815A1, “Micronised azodicarbonamide, and the preparation and use thereof” (priority 2005, published 2007)
